{
  "source": "ChEMBL document CHEMBL1141220",
  "about": "“A new class of HIV-1 protease inhibitors containing a tertiary alcohol in the transition-state mimicking scaffold” (J Med Chem, 2005)",
  "key": {"MT4 [1]": {"tested_on": "MT4", "experiment": "Antiviral activity against HIV1 infected MT4 cells by colorimetric XTT assay", "format": "functional, cell-based", "details": "Homo sapiens"}, "[2]": {"target": "Human immunodeficiency virus type 1 protease (Human immunodeficiency virus 1, UniProt Q72874)", "experiment": "Inhibitory activity against HIV1 protease expressed in Escherichia coli in a fluorometric assay"}, "MT4 [3]": {"tested_on": "MT4", "experiment": "Antiviral activity against mutant HIV1 (V32I, M46I, A71V, V82A) infected MT4 cells by colorimetric XTT assay", "format": "functional, cell-based"}, "MT4 [4]": {"tested_on": "MT4", "experiment": "Antiviral activity against mutant HIV1 (V32I, M46I, V82A) infected MT4 cells by colorimetric XTT assay", "format": "functional, cell-based"}, "[5]": {"experiment": "Caco-2 cell membrane permeability", "format": "ADME, cell-based", "details": "human"}, "[6]": {"experiment": "Intrinsic clearance (CL) in human liver microsomes at 2 uM", "format": "ADME, Microsome"}},
  "data": [
    {"smiles": "CC(C)[C@H](NC(=O)OCc1ccccc1)C(=O)NN(Cc1ccccc1)C[C@@](O)(Cc1ccccc1)C(=O)N[C@H]1c2ccccc2C[C@H]1O", "values": [
      {"measurement": "EC50", "setting": "MT4 [1]", "value": "> 10000", "unit": "nM"},
      {"measurement": "Ki", "setting": "[2]", "value": 23, "unit": "nM"}
    ]},
    {"smiles": "CC(C)(C)[C@H](NC(=O)NCc1ccccc1)C(=O)NN(Cc1ccccc1)C[C@@](O)(Cc1ccccc1)C(=O)N[C@H]1c2ccccc2C[C@H]1O", "values": [
      {"measurement": "EC50", "setting": "MT4 [1]", "value": "> 10000", "unit": "nM"},
      {"measurement": "Ki", "setting": "[2]", "value": 22, "unit": "nM"}
    ]},
    {"smiles": "CC(C)(C)[C@H](NC(=O)OCc1ccccc1)C(=O)NN(Cc1ccccc1)C[C@@](O)(Cc1ccccc1)C(=O)N[C@H]1c2ccccc2C[C@H]1O", "values": [
      {"measurement": "EC50", "setting": "MT4 [1]", "value": "> 10000", "unit": "nM"},
      {"measurement": "Ki", "setting": "[2]", "value": 18, "unit": "nM"}
    ]},
    {"smiles": "COC(=O)N[C@H](C(=O)NN(Cc1ccc(Br)cc1)C[C@@](O)(Cc1ccccc1)C(=O)N[C@H]1c2ccccc2C[C@H]1O)C(C)(C)C", "values": [
      {"measurement": "EC50", "setting": "MT4 [1]", "value": 1100, "unit": "nM"},
      {"measurement": "EC50", "setting": "MT4 [3]", "value": 800, "unit": "nM"},
      {"measurement": "EC50", "setting": "MT4 [4]", "value": 900, "unit": "nM"},
      {"measurement": "Papp", "setting": "[5]", "value": 42, "unit": "×10⁻⁶ cm/s"}
    ]},
    {"smiles": "CC(C)[C@H](NC(=O)OCc1ccccc1)C(=O)NN(Cc1ccccc1)C[C@](O)(Cc1ccccc1)C(=O)N[C@H]1c2ccccc2C[C@H]1O", "values": [
      {"measurement": "EC50", "setting": "MT4 [1]", "value": "> 10000", "unit": "nM"},
      {"measurement": "Ki", "setting": "[2]", "value": 870, "unit": "nM"}
    ]},
    {"smiles": "COC(=O)N[C@H](C(=O)NN(Cc1ccccc1)C[C@@](O)(Cc1ccccc1)C(=O)N[C@H]1c2ccccc2C[C@H]1O)C(C)C", "values": [
      {"measurement": "EC50", "setting": "MT4 [1]", "value": 4800, "unit": "nM"},
      {"measurement": "Ki", "setting": "[2]", "value": 9, "unit": "nM"}
    ]},
    {"smiles": "COC(=O)N[C@H](C(=O)NN(Cc1ccccc1)C[C@@](O)(Cc1ccccc1)C(=O)N[C@H]1c2ccccc2C[C@H]1O)C(C)(C)C", "values": [
      {"measurement": "EC50", "setting": "MT4 [1]", "value": 1900, "unit": "nM"},
      {"measurement": "EC50", "setting": "MT4 [3]", "value": 1600, "unit": "nM"},
      {"measurement": "Ki", "setting": "[2]", "value": 6, "unit": "nM"},
      {"measurement": "EC50", "setting": "MT4 [4]", "value": 2000, "unit": "nM"},
      {"measurement": "microsomal CLint at 2 µM", "setting": "[6]", "value": 527, "unit": "µL/min/mg"},
      {"measurement": "Papp", "setting": "[5]", "value": 35, "unit": "×10⁻⁶ cm/s"}
    ]},
    {"smiles": "CC(C)(C)[C@H](NS(C)(=O)=O)C(=O)NN(Cc1ccccc1)C[C@@](O)(Cc1ccccc1)C(=O)N[C@H]1c2ccccc2C[C@H]1O", "values": [
      {"measurement": "EC50", "setting": "MT4 [1]", "value": "> 10000", "unit": "nM"},
      {"measurement": "Ki", "setting": "[2]", "value": 63, "unit": "nM"}
    ]},
    {"smiles": "COC(=O)N[C@H](C(=O)NN(Cc1ccccc1)C[C@](O)(Cc1ccccc1)C(=O)N[C@H]1c2ccccc2C[C@H]1O)C(C)(C)C", "values": [
      {"measurement": "EC50", "setting": "MT4 [1]", "value": "> 10000", "unit": "nM"}
    ]},
    {"smiles": "CC(C)[C@H](NC(=O)OCc1ccccc1)C(=O)NN(Cc1ccc(Br)cc1)C[C@@](O)(Cc1ccccc1)C(=O)N[C@H]1c2ccccc2C[C@H]1O", "values": [
      {"measurement": "EC50", "setting": "MT4 [1]", "value": "> 10000", "unit": "nM"},
      {"measurement": "Ki", "setting": "[2]", "value": 17, "unit": "nM"}
    ]}
  ]
}
